Experimental data published in patent US4592997A, “Process for the detection of the presence of an allergy and for the specific detection of the allergen responsible for the allergy” (Boehringer Mannheim GmbH, priority 1982, dated 1986).
Peptide text beside a SMILES is read from it. * marks the point of attachment. pNA = O=[N+]([O-])c1ccc(N*)cc1; Tos = Cc1ccc(S(=O)(=O)*)cc1; Cbz = O=C(OCc1ccccc1)*

Key:
[1] = tested on: protease liberated from leukocytes after anti-IgE stimulation; assay: Splitting of chromogenic substrates by the protease liberated from leukocytes; assay type: biochemical, human
Procedure: (§1) Two 0.9 ml. amounts of cell suspension were each transferred to a polyethylene test tube, mixed with 0.4 ml. tris buffer mixture (pH 7.6) and brought to 37° C. in a water-bath. To one sample, there was added 0.1 ml. of anti-IgE solution (Behring-Werke, No. OTNP 04/05, diluted 1:500 with tris buffer mixture; pH 7.6) and to the other sample (the control) there was pipetted 0.1 ml. of tris buffer mixture (pH 7.6) and to both samples there was added 0.1 ml. calcium chloride solution (4 mmol/liter in isotonic sodium chloride solution; pH 7.6). The two samples were kept for 60 minutes at 37° C., then each was mixed with 0.5 ml. ice-cold EDTA solution (0.1 mol/liter in isotonic sodium chloride solution; pH 7.6) and centrifuged for 10 minutes at 4° C., and at 30000 g, the supernatant being pipetted off immediately after stopping the centrifuge.
To 0.5 ml of the supernatant was added 0.5 ml. of 1.5 mmol/l. Chromozym TH solution (1 bottle BM 199664 dissolved in 5 ml. water). The extinction difference between the two samples was determined after 1, 2 and 3 hours at 405 nm.
From two 0.9 ml. amounts of leukocyte suspension obtained according to Example 1.1 from the blood of a healthy donor, there was obtained protease according to Example 1.2, after anti-IgE stimulation, as centrifuge supernatant. The testing of the protease took place as in Example 1.3 but in the case of one sample, instead of Chromozym TH, there was added an equimolar amount of CBO-Gly-Pro-Arg-pNA. Within the first 3 hours equal ΔE/h values (ΔE/h=0.067) were measured.
The activity of two samples treated in parallel according to Example 1 was determined with Chromozym TH and with an equimolar amount of Chromozym PL. With Chromozym PL, there was found ΔE/h=0.052 and with Chromozym TH ΔE/h=0.048.
The protease activity of two samples treated in parallel according to Example 1 was determined with Chromozym TH and with an equimolar amount of S 2238. With S 2238 there was determined ΔE/h=0.037 and with Chromozym TH ΔE/h=0.048.

[2] = tested on: leukocytes; assay: Protease liberation from leukocytes by anti-IgE or allergen, measured with Chromozym TH (Example 1 method); assay type: cell-based, human; conditions: for allergy towards the substance shown with the process (in words): general statement
Procedure: 60 ml. venous blood of a healthy donor were carefully mixed with 30 ml. of a dextran mixture (dextran with average M.W. of 75000 2%; D-glucose 2%, EDTA 20 mmol/liter; gelatine 0.07%) in a polyethylene beaker and transferred to a siliconised separating funnel. After leaving to stand for 60 to 90 minutes at room temperature, the supernatant containing the leukocytes (about 50 ml.) was separated off and mixed with 50 ml. tris buffer mixture of pH 7.6 (tris 22 mmol/liter; sodium chloride 0.12 mol/liter; potassium chloride 5 mmol/liter; gelatine 0.05%; EDTA 1 mmol/liter; D-glucose 0.1%) and centrifuged for 15 minutes at 800 g. After decanting, the cells were washed twice in that, in each case, they were again suspended in 50 ml. of the same buffer mixture (pH 7.6) and, in each case, centrifuged for 15 minutes at 800 g. The cells were then suspended in 10 ml. of the same buffer mixture.
as §1
To 0.5 ml of the supernatant was added 0.5 ml. of 1.5 mmol/l. […] The extinction difference between the two samples was determined after 1, 2 and 3 hours at 405 nm.

[3] = tested on: new protease from leukocytes; assay: Specific inhibitability of the new protease from leukocytes; assay type: biochemical, human; conditions: new leukocyte protease
[4] = tested on: kallikrein-like protease from leukocytes; conditions: cited from earlier work
[5] = Example 3, healthy donor, after anti-IgE stimulation, first 3 hours, equimolar substrate
[6] = Example 4, samples treated according to Example 1, equimolar substrate
[7] = Example 5, samples treated according to Example 1, equimolar substrate

## N=C(N)NCCC[C@H](NC(=O)[C@@H]1CCCN1C(=O)CNC(=O)OCc1ccccc1)C(=O)Nc1ccc([N+](=O)[O-])cc1 [CBO-Gly-Pro-Arg-pNA, reference compound] (Cbz-Gly-Pro-Arg-pNA)
[1]; [5]
  ΔE/h with the substrate: 0.067 h⁻¹

## Cc1ccc(S(=O)(=O)NCC(=O)N2CCC[C@H]2C(=O)N[C@@H](CCCCN)C(=O)Nc2ccc([N+](=O)[O-])cc2)cc1 [Chromozym PL, Tos-Gly-Pro-Lys-pNA] (Tos-Gly-Pro-Lys-pNA)
[1]; [6]
  ΔE/h with the substrate: 0.052 h⁻¹

## CC(=O)O.Cc1ccc(S(=O)(=O)NCC(=O)N2CCC[C@H]2C(=O)N[C@@H](CCCNC(=N)N)C(=O)Nc2ccc([N+](=O)[O-])cc2)cc1 [Chromozym TH, tosyl-glycyl-prolyl-arginine-p-nitroanilide acetate] (Tos-Gly-Pro-Arg-pNA)
[1]; [5]
  ΔE/h with the substrate: 0.067 h⁻¹
[1]; [6]
  ΔE/h with the substrate: 0.048 h⁻¹
[1]; [7]
  ΔE/h with the substrate: 0.048 h⁻¹

## NC(N)=NCCC[C@H](NC(=O)[C@@H]1CCCCN1C(=O)[C@H](N)Cc1ccccc1)C(=O)Nc1ccc([N+](=O)[O-])cc1 [S 2238, Phe-Pip-Arg-pNA]
[1]; [7]
  ΔE/h with the substrate: 0.037 h⁻¹

## CC1(C)S[C@@H]2[C@H](NC(=O)[C@H](N)c3ccccc3)C(=O)N2[C@H]1C(=O)O [ampicillin]
[2]; donor allergic to ampicillin
  additional extinction change ΔE/h versus unstimulated comparative sample: 0.558 h⁻¹
[2]; donor allergic to ampicillin, 0.9 ml. leukocyte suspension
  measurement value ΔE/h of the stimulated sample: 0.893 h⁻¹
[2]
  allergy towards the substance shown with the process (in words): demonstrated

## aprotinin [reference compound]
[3]
  specific inhibitability by aprotonin I50: 1 mg/mL
[4]; known kallikrein-like protease
  specific inhibitability by aprotinin I50: about 50 μg./ml.

## nickel
[2]
  allergy towards the substance shown with the process (in words): demonstrated

B1: soya bean trypsin inhibitor (protein, UniProt P01070 25-205, looked up)
Trypsin inhibitor A: DFVLDNEGNPLENGGTYYILSDITAFGGIRAAPTGNERCPLTVVQSRNELDKGIGTIISSPYRIRFIAEGHPLSLKFDSFAVIMLCVGIPTEWSVVEDLPEGPAVKIGENKDAMDGWFRLERVSDDEFNNYKLVFCPQQAEDDKCGDIGISIDHDDGTRRLVVSKNKPLVVQFQKLDKESL
[4]; 0.1 mole/l. STI
  inhibition by STI: 11%
